Data taken from article PMC10724293, “New ruthenium-xanthoxylin complex eliminates colorectal cancer stem cells by targeting the heat shock protein 90 chaperone” (Cell Death & Disease, 2023).

How the values were obtained:
[1] = tested on: PBMC; assay: Alamar blue cytotoxicity assay, noncancerous cells; type: cell-based, human; settings: 72 h, read-out: IC50 and 95%CI
Protocol: (§1) The Alamar blue assay was used to determine cell viability as previously described. Cells were seeded into 96-well plates at a density of 7 × 10^3 cells per well for adherent cells or 3 × 10^4 cells per well for suspended cells. The drug was added to each well after 24 h of incubation for adherent cells or immediately for suspended cells and incubated for an additional 72 h. […] Each well received 100 µM resazurin (Sigma-Aldrich Co. St. Louis, MO, United States) four (for cell lines) or 24 (for primary culture) h before the end of the incubation. A SpectraMax 190 Microplate Reader (Molecular Devices, Sunnyvale, CA, USA) was used to measure absorbance at 570 and 600 nm.

[2] = tested on: BJ; assay: Alamar blue cytotoxicity assay, noncancerous cells; type: cell-based, human; settings: 72 h, read-out: IC50 and 95%CI
Protocol: as §1

[3] = tested on: MRC-5; assay: Alamar blue cytotoxicity assay, noncancerous cells; type: cell-based, human; settings: MRC-5 noncancerous cells, 72 h, read-out: IC50 and 95%CI
Protocol: as §1

[4] = tested on: HCT116 cells; assay: Protein expression levels by flow cytometry; type: cell-based, human; settings: 10 μM, 24 h
Protocol: Flow cytometry was used to measure protein expression levels using primary antibodies conjugated with specific fluorochromes, as detailed in Table S5. For intracellular protein staining, cells were collected and resuspended in 0.5–1 ml of 4% formaldehyde for 10 min at 37 °C. The tubes were then kept on ice for 1 min and permeabilized for 30 min on ice by slowly adding ice-cold 100% methanol to prechilled cells while gently vortexing to a final concentration of 90% methanol. After washing with incubation buffer (0.5% bovine serum albumin in PBS), antibodies were added and incubated at room temperature for 1 h. Finally, the cells were washed with PBS, and the fluorescence of the cells was measured using flow cytometry.
For cell surface protein staining, cells were washed with incubation buffer (0.5% bovine serum albumin in PBS), and then antibodies were added and incubated for 1 h at room temperature. The cells were then washed with PBS, and cell fluorescence was measured using flow cytometry. To select viable cells for quantification of CD133-positive cells, YO-PRO-1 (Sigma-Aldrich Co.) was used.
For all flow cytometry analyses, cell fluorescence was measured with a BD LSRFortessa cytometer and analyzed by BD FACSDiva Software (BD Biosciences) and FlowJo Software 10 (FlowJo LLC; Ashland, OR, USA). At least 10,000 events were evaluated per sample for intracellular staining, and at least 30,000 events were acquired per sample for cell surface protein staining. FSC-A versus FCS-H and SCC-A versus SCC-H were used to remove the doublets. The analysis excluded cellular debris.

[5] = tested on: HepG2 human hepatocellular carcinoma cells; settings: HepG2 in monolayers or 3D multicellular cancer spheroids; cited from earlier work
[6] = tested on: BAD KO SV40 MEF; assay: Alamar blue survival curves and cell death; type: cell-based, mouse; settings: BAD KO SV40 MEF vs WT SV40 MEF; 10 μM, 48 h
Protocol: as §1
For apoptosis detection or functional assays, cell viability was quantified using annexin V-FITC/PI (FITC Annexin V Apoptosis Detection Kit I, BD Biosciences, San Jose, CA, USA) or YO-PRO-1/PI (Sigma-Aldrich Co.). The following inhibitors were used: chloroquine (autophagy inhibitor, Ipca Laboratories, Mumbai, MH, India); 3-methyladenine (autophagy inhibitor, Sigma-Aldrich Co.); and lithium chloride (Wnt activator, Sigma-Aldrich Co.).

## cis-[Ru(phen)2(xant)](PF6) [RXC]
[1]
  IC50: 4.93 µM
[2]
  IC50: 0.76 µM
[3]
  IC50: 21.4 µM
[4]
  E-cadherin expression: increased
  LC3B expression: increased
  expression level of 4EBP1 (pT36/pT45): decreased
  expression level of Akt1: decreased
  expression level of Akt (pS473): decreased
  expression level of Akt (pT308): no change
  expression level of GSK-3β (pS9): decreased
  expression level of NF-κB p65 (pS529): decreased
  expression level of PI3K p85/p55 (pT458/pT199): no change
  expression level of S6 (pS235/pS236): no change
  expression level of elF4E (pS209): no change
  expression level of mTOR (pS2448): decreased
  expression of Hsp90 protein: decreased
  levels of PARP cleavage (Asp214): increased
  p62/SQSTM1 expression: decreasing
  vimentin expression: decreased
[5]
  cytotoxicity: potent cytotoxicity
[6]
  role of the proapoptotic protein BAD in induced cell death: BAD-independent cell death
